Measured values published in patent publication US8236839B2, “Dual-acting antihypertensive agents” (Theravance, Inc., priority 2007, dated 2012).

Key:
human AT1 receptor = molecular target: T1, human AT1 receptor (Homo sapiens, UniProt P30556); experiment: AT1 radioligand binding assay; details: displacement of [Eu]AngII at 2 nM, membranes of CHO-K1 cells expressing human AT1 receptor; read-out: pKi at the AT1 receptor (converted)
T1 construct: expressed in transfected cells; membrane preparation
T1 sequence (P30556 1-359): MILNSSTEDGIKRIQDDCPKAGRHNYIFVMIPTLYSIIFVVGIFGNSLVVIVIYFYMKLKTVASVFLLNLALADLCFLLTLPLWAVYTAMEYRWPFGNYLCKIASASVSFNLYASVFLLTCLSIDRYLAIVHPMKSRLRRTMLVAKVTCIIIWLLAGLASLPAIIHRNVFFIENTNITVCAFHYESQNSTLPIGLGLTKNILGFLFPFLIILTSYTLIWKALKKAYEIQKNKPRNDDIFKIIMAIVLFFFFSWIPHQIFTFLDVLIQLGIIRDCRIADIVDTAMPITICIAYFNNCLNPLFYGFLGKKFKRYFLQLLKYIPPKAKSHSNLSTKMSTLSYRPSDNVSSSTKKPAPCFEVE
Experimental: These in vitro assays were used to assess the ability of test compounds to bind to the AT1 and the AT2 receptors.
Chinese hamster ovary (CHO-K1) derived cell lines stably expressing the cloned human AT1 or AT2 receptors, respectively, were grown in HAM's-F12 medium supplemented with 10% fetal bovine serum, 10 μg/ml penicillin/streptomycin, and 500 μg/ml geneticin in a 5% CO2 humidified incubator at 37° C. AT2 receptor expressing cells were grown in the additional presence of 100 nM PD123,319 (AT2 antagonist). When cultures reached 80-95% confluence, the cells were washed thoroughly in PBS and lifted with 5 mM EDTA. Cells were pelleted by centrifugation and snap frozen in MeOH-dry ice and stored at −80° C. until further use.
For membrane preparation, cell pellets were resuspended in lysis buffer (25 mM Tris/HCl pH 7.5 at 4° C., 1 mM EDTA, and one tablet of Complete Protease Inhibitor Cocktail Tablets with 2 mM EDTA per 50 mL buffer (Roche cat. #1697498, Roche Molecular Biochemicals, Indianapolis, Ind.)) and homogenized using a tight-fitting Dounce glass homogenizer (10 strokes) on ice. The homogenate was centrifuged at 1000×g, the supernatant was collected and centrifuged at 20,000×g. […] Protein concentration of the membrane suspension was determined by the method described in Bradford (1976) Anal Biochem. 72:248-54. […]

NEP enzyme = molecular target: T2, NEP enzyme (Homo sapiens, UniProt P08473); experiment: In vitro enzyme inhibition assay at NEP; type: biochemical; details: fluorogenic peptide substrate; human or rat NEP not given; read-out: pIC50 for the NEP enzyme (converted)
T2 construct: purchased R&D Systems, Minneapolis, Minn; 1182-ZN
Experimental: The inhibitory activities of compounds at human and rat NEP and human ACE were determined using in vitro assays as described below.
Rat NEP was prepared from the kidneys of adult Sprague Dawley rats. Whole kidneys were washed in cold PBS and brought up in ice-cold lysis buffer (1% Triton X-114, 150 mM NaCl, 50 mM Tris pH 7.5; Bordier (1981) J. Biol. Chem. 256:1604-1607) in a ratio of 5 mL of buffer for every gram of kidney. Samples were homogenized using a polytron hand held tissue grinder on ice. Homogenates were centrifuged at 1000×g in a swinging bucket rotor for 5 minutes at 3° C. The pellet was resuspended in 20 mL of ice cold lysis buffer and incubated on ice for 30 minutes. […] Protein concentrations were quantitated using a BCA detection system with BSA as a standard. […]
The assays were performed in 384-well white opaque plates at room temperature using the respective fluorogenic peptides at a concentration of 10 μM in assay buffer (50 mM Tris/HCl at 25° C., 100 mM NaCl, 0.01% Tween-20, 1 μM Zn, 0.025% BSA). […] The rat NEP enzyme preparation was used at a concentration that yielded quantitative proteolysis of 3 μM of Mca-RRL within 20 minutes at room temperature.
Assays were started by adding 25 μL of enzyme to 12.5 μL of test compound at 12 concentrations (10 μM to 20 pM). […] Plates were read on a fluorometer with excitation and emission wavelengths set to 320 nm and 405 nm, respectively. […]

T2 sequence (P08473 52-750 limits assumed): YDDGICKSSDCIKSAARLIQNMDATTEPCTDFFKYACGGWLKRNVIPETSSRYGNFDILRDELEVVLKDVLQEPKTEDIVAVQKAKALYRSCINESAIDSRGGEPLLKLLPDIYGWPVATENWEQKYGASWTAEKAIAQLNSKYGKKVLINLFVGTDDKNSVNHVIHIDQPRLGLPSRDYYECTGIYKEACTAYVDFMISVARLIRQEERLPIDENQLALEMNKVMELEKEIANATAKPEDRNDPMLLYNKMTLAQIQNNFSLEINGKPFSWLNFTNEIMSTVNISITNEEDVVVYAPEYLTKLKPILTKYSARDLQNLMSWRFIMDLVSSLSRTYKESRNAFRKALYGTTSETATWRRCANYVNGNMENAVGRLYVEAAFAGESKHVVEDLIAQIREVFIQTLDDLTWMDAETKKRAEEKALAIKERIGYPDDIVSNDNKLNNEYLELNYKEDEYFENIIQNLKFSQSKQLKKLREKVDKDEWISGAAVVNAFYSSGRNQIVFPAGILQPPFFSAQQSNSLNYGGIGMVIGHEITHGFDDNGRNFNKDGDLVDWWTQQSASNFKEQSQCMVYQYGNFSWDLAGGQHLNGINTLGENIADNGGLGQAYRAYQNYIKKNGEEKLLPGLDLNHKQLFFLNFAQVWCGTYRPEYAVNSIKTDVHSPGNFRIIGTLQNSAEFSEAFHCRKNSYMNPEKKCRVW

Compound | Ki (human AT1 receptor) | IC50 (NEP enzyme)
CCCCCN(Cc1ccc(-c2ccccc2-c2nnn[nH]2)cc1)C(=O)[C@H](CC(=O)O)NC(=O)C(CS)CC(C)C (stereo partly drawn) [Example 1, (S)-3-(2-Mercaptomethyl-4-methylpentanoylamino)-N-pentyl-N-[2′1-(1H-tetrazol-5-yl)biphenyl-4-ylmethyl]succinamic Acid] | < 10 nM | ≤ 100 nM
CCCCCN(Cc1ccc(-c2ccccc2-c2nnn[nH]2)cc1)C(=O)N1C[C@@H](NC(=O)C(CC(C)C)C(=O)NO)C[C@H]1C(=O)O (stereo partly drawn) [Example 2, (2S,4S)-4-(2-Hydroxycarbamoyl-4-methylpentanoylamino)-1-{pentyl[2′-(1H-tetrazol-5-yl)biphenyl-4-ylmethyl]carbamoyl}pyrrolidine-2-carboxylic Acid] | < 10 nM | ≤ 100 nM
